Entries after “also recorded” stand apart in the source; their conditions may differ. Numbered stars: 1 amine (or outer) side, 2 acyl side, 3 side chain; on linkers, the order of the positions; unused ones are H or OH. Bridge positions count the residues as written; N and C are the ends. Ends that are not written are not given here. Peptide text beside a SMILES is read from it. * marks the point of attachment. Perfluorobiphenyl(4,4') = Fc1c(F)c([*:1])c(F)c(F)c1-c1c(F)c(F)c([*:2])c(F)c1F; FITC = O=C1OC2(c3ccc(O)cc3Oc3cc(O)ccc32)c2ccc(NC(=S)*)cc21; Ahx = NCCCCCC(=O)O
What was measured:
WT a-syn oligomers = experiment: Split luciferase a-syn oligomer/aggregation assay; type: cell-based, human; conditions: cells stably expressing split luciferase a-synuclein constructs; stapled peptides
Experimental: tet-off cells stably expressing split luciferase a-syn constructs were trypsinized from subconfluent culture and seeded in a 96-well plate at a density of 15,000 cells per well. Cells were incubated overnight at 37° C. in 5% CO2. […] After 6 h of incubation, 20 μL of cell medium was transferred to a black flat-bottomed 96-well plate. 50 μL of Working solution (Pierce Gaussia-Firefly Luciferase Dual Assay Kit, Thermo Scientific #16181) was added into each well containing cell medium. Immediately after adding the reagent, samples were read using a luminometer with a 480 nm filter.

[1] = test system: HEK293 cells overexpressing WT or A53T a-syn; experiment: Cell Titer-Glo cell viability assay in a-syn expressing cells; type: cell-based, human
[2] = test system: HEK293 cells overexpressing WT or A53T a-syn; experiment: as above; type: cell-based, human; conditions: HEK293 cells overexpressing WT or A53T a-syn, with or without MG132; expressed GFP-peptide or protein
Experimental: Oligonucleotides encoding the specific peptides were synthesized and individually cloned into the pLJM1 nGFP lentiviral vector. Cells were infected with individual constructs, and cell viability was assessed using Cell Titer-Glo Luminescent assay (Promega) at 72 h post infection.
Cells were trypsinized from subconfluent cultures as described earlier, suspended in culture media, and then seeded into triplicate wells of a 96-well plate (100 μl well/1) at a density of 1.5×10^4 cells per well at standard culture conditions of 5% CO2 in air at 37° C. Cells were infected with lentivirus expressing peptide at an MOI of 5 for 72 h or transfected with plasmid for 72 h. Cell Titer-Glo reagent was added to each well (30 μL), according to the manufacturer's protocol and […].

A53T a-syn = experiment: a-syn protein levels by immunoblot in HEK293 cells; type: cell-based, human; conditions: HEK293 cells expressing A53T a-syn
Experimental: Infected or transfected cells were scraped from 6-well dishes and lysed with lysis buffer (50 mM Tris-HCl pH7.4, 1% Nonidet P-40, 150 mM NaCl, 1 mM EDTA, 1× protease inhibitor mixture (Sigma)) for 30 min at 4° C. The insoluble pellet was removed following a 10,000 rpm spin for 5 minutes at 4° C. Lysates were analyzed by SDS-PAGE/immunoblot using 4-20% Mini-PROTEAN Tris-glycine gels (Bio-Rad) transferred to PVDF membranes and blocked in 5% milk containing PBS-Tween-20 (0.1%) for 1 h. PVDF membranes were then incubated with specified primary antibodies followed by incubation with horseradish peroxidase-conjugated secondary antibodies (Santa Cruz Biotechnology) and detected using enhanced chemiluminescence (GE Healthcare).

VPS4 = conditions: motif-domain interaction, reference (20); read-out: affinity of CHMP2B-VPS4 interaction; cited from earlier work
[3] = target: T1, VPS4B, purified (His-tagged Sumo construct) (UniProt O75351 1-444); experiment: fluorescence polarization (FIG. 8)
T1 construct: also called Vacuolar Protein Sorting 4; not shown: His tag and Sumo (pRSet B vector)
T1 sequence (looked up): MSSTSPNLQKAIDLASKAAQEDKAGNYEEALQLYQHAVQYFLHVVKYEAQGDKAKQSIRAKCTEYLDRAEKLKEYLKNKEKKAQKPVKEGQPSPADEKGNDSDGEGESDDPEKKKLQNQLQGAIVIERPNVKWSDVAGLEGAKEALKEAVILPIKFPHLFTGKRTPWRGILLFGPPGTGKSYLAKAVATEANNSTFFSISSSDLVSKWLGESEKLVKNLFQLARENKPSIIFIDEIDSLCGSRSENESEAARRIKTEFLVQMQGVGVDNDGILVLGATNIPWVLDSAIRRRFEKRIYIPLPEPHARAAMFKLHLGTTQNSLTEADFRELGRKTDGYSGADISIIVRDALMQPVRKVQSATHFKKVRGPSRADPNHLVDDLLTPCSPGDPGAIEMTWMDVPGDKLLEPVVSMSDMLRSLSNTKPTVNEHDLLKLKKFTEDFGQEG

[4] = target: T2, Charged multivesicular body protein 2B (CHMP2B), full length, purified (human, UniProt Q9UQN3 2-213); experiment: fluorescence polarization, 50 nM FITC-peptide, CHMP2B titrated
T2 construct: mature; not shown: tag from the pET-DEST42 vector used for Ni-NTA purification
T2 sequence (Q9UQN3 2-213): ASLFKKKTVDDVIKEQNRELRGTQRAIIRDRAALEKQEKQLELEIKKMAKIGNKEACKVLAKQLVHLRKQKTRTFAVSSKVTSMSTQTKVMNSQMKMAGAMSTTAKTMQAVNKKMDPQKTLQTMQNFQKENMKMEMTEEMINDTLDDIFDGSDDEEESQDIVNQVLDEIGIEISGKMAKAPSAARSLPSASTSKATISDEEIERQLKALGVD

[5] = target: T1, VPS4B, purified (His-tagged Sumo …); experiment: fluorescence polarization, FITC-peptide against VPS4B
CHMP2B 1-199 truncation [6] = target: T3, CHMP2B 1-199 truncation (human, UniProt Q9UQN3 1-199); experiment: fluorescence polarization
T3 construct: Tags and purification of the truncated protein are not described
T3 sequence (Q9UQN3 1-199 limits assumed): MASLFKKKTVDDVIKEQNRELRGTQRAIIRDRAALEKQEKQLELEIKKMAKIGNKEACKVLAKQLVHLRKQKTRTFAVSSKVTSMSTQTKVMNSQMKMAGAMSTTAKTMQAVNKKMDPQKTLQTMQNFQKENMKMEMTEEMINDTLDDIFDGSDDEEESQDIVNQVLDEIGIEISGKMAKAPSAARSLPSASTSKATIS

[7] = target: T2, Charged multivesicular body protein 2B …; experiment: fluorescence polarization
[8] = target: T2, Charged multivesicular body protein 2B …; experiment: fluorescence polarization, FITC-labelled a-syn peptide, CHMP2B titrated
[9] = target: T2, Charged multivesicular body protein 2B …; experiment: fluorescence polarization, stapled peptide against full length CHMP2B
CHMP2B 1-199 truncation [10] = target: T3, CHMP2B 1-199 truncation; experiment: fluorescence polarization, stapled peptide against truncated CHMP2B (1-199)

CC[C@H](C)[C@H](NC(=O)[C@H](CCC(=O)O)NC(=O)[C@H](CCC(=O)O)NC(=O)[C@H](CC(=O)O)NC(=O)CCCCCNC(=S)Nc1ccc2c(c1)C(=O)OC21c2ccc(O)cc2Oc2cc(O)ccc21)C(=O)N[C@H]1CSc2c(F)c(F)c(c(F)c2F)-c2c(F)c(F)c(c(F)c2F)SC[C@@H](C(N)=O)NC(=O)[C@H](CC(C)C)NC(=O)[C@H](C)NC(=O)[C@H](CC(=O)O)NC(=O)[C@H](CC(C)C)NC(=O)[C@H](CCC(N)=O)NC(=O)[C@H](CCCNC(=N)N)NC1=O ({FITC-Ahx}-DEEICRQLDALC-NH2; linker 5-12 via Perfluorobiphenyl(4,4'); N-terminus and C-terminus assumed)
a-syn aggregation measured by luciferase activity (WT a-syn oligomers): significant reduction in a-syn aggregation
A53T cell viability, stapled peptides incubated [1]: increase in A53T cell viability

CHMP2B (1-178): shorter CHMP2B truncation (1-178) implicated in FTD
cell viability / cytoprotective effect [2]: increased toxicity

CHMP2B (1-199): truncated CHMP2B removing the MIM, residues 1-199
a-syn protein levels by immunoblot (A53T a-syn): reduction in a-syn levels
cell viability / cytoprotective effect [2]: rescues toxicity

DEEYCRQWKALC (cysteine staple) [stapled macrocycle; cysteines introduced at the locations to be stapled]
a-syn aggregation measured by luciferase activity (WT a-syn oligomers): significant reduction in a-syn aggregation
A53T cell viability, stapled peptides incubated [1]: increase in A53T cell viability

DIEICFQLKALC (cysteine staple) [stapled macrocycle; cysteines introduced at the locations to be stapled]
a-syn aggregation measured by luciferase activity (WT a-syn oligomers): significant reduction in a-syn aggregation
A53T cell viability, stapled peptides incubated [1]: increase in A53T cell viability

full-length CHMP2B: Charged Multivesicular Body Protein 2B, member of ESCRT-III, uniprot ID Q9UQN3
a-syn protein levels by immunoblot (A53T a-syn): reduced a-syn protein levels; also recorded: reduces a-syn levels
Kd (VPS4): 178000 nM
cell viability / cytoprotective effect [2]: rescues a-syn cytotoxicity

B1: FITC-labeled PDpep1.3 peptide DEEIERQLKALG (peptide)
peptide: {FITC}-DEEIERQLKALG
notes: Synthetic peptide (LifeTein) with an N-terminal FITC moiety, used in the fluorescence polarization assays; also called DPpep1.3; FITC-Pdpep1.3
Kd [3]: > 100000 nM
Kd [4]: 1800 nM
Kd [5]: ~200000 nM

B2: Stapled peptide DIEICFQLKALC (peptide)
peptide: {FITC}-DIEICFQLKALC
modifications: linker 5-12 via hexafluorobenzene (inferred)
notes: also called optimized macrocycle
binding result (CHMP2B 1-199 truncation [6]): binds
binding result [7]: binds

B3: FITC-labelled a-syn peptide, amino acids 103-114 (NEEGAPQEGILE) (peptide)
peptide: {FITC}-NEEGAPQEGILE
Kd [8]: 640 nM

B4: Stapled Pdpep1.4 variant DEEICRQLDALC (peptide)
peptide: {FITC}-DEEICRQLDALC
modifications: linker 5-12 via hexafluorobenzene (inferred)
notes: as for B2
Kd [9]: 600 nM
Kd (CHMP2B 1-199 truncation [10]): 60 nM

Reference: patent publication US20250051391A1, “PEPTIDE INHIBITORS AND METHODS FOR INHIBITING PROTEIN AGGREGATION IN NEURONS AND NEURODEGENERATIVE DISEASES” (THE GOVERNING COUNCIL OF THE UNIVERSITY OF TORONTO, priority 2021, published 2025)
